What all share (assay): KinomeScan profiling
Format in all cases: binding

Assay [1] deals with T1, ABL1(F317I)-phoshorylated (Homo sapiens, UniProt P00519, F317I).
T1 construct: purchased KinomeScan®
As to conditions: read-out: % control. An outline of the steps: (§1)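 The panel spans 468 kinases, and each inventive compound was applied at 1 μM from DMSO. Lower % control means stronger binding; the activity cut-off is set at less than 35%.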

In the next assay the target is T2, BMX (Homo sapiens, UniProt P51813).
T2 construct: purchased KinomeScan®
T2 sequence (P51813 1-675): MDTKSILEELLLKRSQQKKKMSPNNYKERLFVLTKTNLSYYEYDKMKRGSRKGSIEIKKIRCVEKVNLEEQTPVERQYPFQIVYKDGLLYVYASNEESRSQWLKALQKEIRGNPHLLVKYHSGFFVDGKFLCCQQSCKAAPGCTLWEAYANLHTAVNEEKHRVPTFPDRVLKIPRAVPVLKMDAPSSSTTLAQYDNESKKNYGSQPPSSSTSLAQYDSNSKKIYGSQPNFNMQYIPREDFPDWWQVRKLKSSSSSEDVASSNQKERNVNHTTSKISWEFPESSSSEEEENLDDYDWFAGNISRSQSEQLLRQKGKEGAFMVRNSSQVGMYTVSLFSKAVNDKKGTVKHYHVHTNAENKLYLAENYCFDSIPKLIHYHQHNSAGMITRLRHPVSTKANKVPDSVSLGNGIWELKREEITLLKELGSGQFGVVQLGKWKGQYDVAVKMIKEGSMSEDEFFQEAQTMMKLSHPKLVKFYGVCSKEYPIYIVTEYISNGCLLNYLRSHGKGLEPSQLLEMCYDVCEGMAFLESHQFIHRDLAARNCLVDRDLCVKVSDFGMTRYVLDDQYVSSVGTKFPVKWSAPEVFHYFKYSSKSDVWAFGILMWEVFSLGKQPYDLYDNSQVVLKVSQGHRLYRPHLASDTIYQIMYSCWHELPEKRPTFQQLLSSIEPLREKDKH
As to conditions: read-out: % control. The essentials: as §1

For a further assay, the target named is T3, EPHA6 (Homo sapiens, UniProt Q9UF33).
T3 sequence (Q9UF33 23-1036): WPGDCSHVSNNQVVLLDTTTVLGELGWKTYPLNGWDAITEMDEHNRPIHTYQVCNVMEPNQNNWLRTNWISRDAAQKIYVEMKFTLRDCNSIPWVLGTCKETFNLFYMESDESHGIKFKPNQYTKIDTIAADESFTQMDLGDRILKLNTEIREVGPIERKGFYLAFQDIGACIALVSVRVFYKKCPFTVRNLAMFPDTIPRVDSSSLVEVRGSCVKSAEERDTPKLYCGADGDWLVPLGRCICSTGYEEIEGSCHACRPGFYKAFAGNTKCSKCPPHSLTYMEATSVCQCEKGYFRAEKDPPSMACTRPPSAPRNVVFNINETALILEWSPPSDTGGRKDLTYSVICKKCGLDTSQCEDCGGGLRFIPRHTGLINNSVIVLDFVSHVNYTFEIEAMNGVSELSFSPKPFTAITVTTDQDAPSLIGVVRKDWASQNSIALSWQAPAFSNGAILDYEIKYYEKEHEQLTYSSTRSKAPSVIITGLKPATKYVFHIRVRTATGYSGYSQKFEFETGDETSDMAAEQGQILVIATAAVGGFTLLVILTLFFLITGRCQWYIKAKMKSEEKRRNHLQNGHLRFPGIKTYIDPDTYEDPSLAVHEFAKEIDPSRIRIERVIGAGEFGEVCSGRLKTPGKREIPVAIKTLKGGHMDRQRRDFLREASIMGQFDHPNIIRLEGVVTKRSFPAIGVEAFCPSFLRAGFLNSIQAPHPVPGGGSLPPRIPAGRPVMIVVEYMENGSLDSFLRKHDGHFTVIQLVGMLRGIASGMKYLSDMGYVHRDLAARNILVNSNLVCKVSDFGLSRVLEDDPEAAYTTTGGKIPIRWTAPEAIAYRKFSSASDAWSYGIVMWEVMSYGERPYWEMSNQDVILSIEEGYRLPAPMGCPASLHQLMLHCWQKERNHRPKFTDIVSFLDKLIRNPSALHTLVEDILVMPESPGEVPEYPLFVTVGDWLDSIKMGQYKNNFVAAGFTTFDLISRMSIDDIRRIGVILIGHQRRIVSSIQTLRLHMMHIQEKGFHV
The following applies: EPHA6, 1 μM; read-out: % control. An outline of the steps:
as §1

A further assay has as its target TRKC (Homo sapiens, UniProt Q16288). As to conditions: read-out: % control. An outline of the steps:
as §1

Another assay has as its target T4, ZAP70 (Homo sapiens, UniProt P43403).
T4 sequence (P43403 1-619): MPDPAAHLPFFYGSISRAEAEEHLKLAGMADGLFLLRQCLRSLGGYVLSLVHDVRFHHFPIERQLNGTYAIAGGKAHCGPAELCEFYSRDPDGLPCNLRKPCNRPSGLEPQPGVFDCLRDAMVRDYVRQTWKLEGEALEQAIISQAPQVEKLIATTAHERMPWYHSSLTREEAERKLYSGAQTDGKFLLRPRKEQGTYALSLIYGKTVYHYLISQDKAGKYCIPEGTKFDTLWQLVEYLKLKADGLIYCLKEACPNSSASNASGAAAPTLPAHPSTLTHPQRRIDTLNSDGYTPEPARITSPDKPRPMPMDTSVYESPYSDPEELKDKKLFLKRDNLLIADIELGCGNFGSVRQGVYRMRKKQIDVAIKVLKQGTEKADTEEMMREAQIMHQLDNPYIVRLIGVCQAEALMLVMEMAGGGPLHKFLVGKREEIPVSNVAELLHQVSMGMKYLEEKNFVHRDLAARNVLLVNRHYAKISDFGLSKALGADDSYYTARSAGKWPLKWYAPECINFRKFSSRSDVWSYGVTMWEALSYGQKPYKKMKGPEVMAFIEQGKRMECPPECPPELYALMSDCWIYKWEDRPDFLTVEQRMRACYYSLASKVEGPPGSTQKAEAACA
The following applies: ZAP70, 1 μM; read-out: % control. An outline of the steps:
as §1

Among the data in patent US12275731B2, “Azaindole inhibitors of wild-type and mutant forms of LRRK2” (DANA-FARBER CANCER INSTITUTE, INC., priority 2018, dated 2025) are remaining binding values, retold here.

Chain of TRKC (Q16288 32-839): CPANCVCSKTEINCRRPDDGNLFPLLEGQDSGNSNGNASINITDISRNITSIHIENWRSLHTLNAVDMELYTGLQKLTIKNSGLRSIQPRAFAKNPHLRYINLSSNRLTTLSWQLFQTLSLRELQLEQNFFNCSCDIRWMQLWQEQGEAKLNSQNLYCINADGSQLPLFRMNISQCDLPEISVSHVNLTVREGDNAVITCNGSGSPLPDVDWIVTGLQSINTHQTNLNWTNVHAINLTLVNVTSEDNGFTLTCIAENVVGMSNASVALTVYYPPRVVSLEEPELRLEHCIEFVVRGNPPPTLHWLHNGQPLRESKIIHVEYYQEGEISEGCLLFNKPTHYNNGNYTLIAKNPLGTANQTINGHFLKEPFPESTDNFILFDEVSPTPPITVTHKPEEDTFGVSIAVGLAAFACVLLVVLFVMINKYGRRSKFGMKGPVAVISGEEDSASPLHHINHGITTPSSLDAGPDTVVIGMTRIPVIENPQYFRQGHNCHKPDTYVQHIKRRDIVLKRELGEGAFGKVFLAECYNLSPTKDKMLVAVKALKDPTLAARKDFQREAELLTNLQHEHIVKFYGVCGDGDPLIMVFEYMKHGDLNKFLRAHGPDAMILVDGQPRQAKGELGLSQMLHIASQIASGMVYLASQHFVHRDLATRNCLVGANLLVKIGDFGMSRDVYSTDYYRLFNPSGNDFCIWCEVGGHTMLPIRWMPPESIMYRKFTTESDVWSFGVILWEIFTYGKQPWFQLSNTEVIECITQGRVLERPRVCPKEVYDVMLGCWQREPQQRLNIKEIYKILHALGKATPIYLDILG
T1 sequence (P00519 whole entry F317I): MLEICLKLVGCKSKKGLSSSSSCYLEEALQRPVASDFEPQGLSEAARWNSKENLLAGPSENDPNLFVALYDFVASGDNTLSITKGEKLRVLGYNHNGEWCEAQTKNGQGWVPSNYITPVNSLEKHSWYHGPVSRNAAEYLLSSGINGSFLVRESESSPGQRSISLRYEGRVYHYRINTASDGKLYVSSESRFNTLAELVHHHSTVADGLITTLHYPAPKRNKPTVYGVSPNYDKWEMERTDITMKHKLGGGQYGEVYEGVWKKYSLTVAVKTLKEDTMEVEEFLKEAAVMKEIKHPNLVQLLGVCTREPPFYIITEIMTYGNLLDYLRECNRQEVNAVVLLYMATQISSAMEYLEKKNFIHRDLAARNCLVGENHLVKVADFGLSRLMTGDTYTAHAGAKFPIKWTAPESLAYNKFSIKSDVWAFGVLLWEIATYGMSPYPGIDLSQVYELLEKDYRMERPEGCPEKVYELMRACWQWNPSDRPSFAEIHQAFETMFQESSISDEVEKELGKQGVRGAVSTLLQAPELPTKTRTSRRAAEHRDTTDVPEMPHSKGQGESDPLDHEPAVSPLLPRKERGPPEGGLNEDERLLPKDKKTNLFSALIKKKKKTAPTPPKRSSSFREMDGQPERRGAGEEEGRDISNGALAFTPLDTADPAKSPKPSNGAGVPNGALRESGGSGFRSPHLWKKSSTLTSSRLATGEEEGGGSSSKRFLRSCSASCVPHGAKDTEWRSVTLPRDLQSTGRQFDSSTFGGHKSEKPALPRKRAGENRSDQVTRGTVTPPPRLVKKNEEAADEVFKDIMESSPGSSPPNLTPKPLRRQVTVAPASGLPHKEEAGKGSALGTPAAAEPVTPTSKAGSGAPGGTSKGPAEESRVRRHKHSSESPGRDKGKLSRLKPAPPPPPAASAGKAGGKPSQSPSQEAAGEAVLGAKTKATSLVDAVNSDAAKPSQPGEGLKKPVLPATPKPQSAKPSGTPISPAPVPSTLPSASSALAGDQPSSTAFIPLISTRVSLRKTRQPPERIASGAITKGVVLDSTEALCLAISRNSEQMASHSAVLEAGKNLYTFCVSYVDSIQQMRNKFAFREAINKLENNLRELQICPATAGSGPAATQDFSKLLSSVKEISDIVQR

`CNc1c(-c2ccc(C(=O)N3CCC(N4CCOCC4)CC3)cc2)cnc2[nH]cc(Cl)c12` [Compound 96, (4-(3-chloro-4-(methylamino)-1H-pyrrolo[2,3-b]pyridin-5-yl)phenyl)(4-morpholinopiperidin-1-yl)methanone]: the remaining binding at 1 µM turned out to be 100% in assay [1]; 93% on BMX; 98% at EPHA6; 82% at TRKC; 100% on ZAP70.
In the case of `O=C(c1ccc(-c2cnc3[nH]cc(Cl)c3c2NC2CCCC2)cc1)N1CCC(N2CCOCC2)CC1` [Compound 101, (4-(3-chloro-4-(cyclopentylamino)-1H-pyrrolo[2,3-b]pyridin-5-yl)phenyl)(4-morpholinopiperidin-1-yl)methanone], the remaining binding at 1 µM came out at 10% in assay [1]; 34% on BMX; 43% at EPHA6; 100% on TRKC; 55% at ZAP70.
`CNc1c(-c2cnn([C@H]3CCN(C(C)=O)C[C@@H]3F)c2)cnc2[nH]cc(Cl)c12` [Compound 77, 1-((3S,4S)-4-(4-(3-chloro-4-(methylamino)-1H-pyrrolo[2,3-b]pyridin-5-yl)-1H-pyrazol-1-yl)-3-fluoropiperidin-1-yl)ethan-1-one]: the remaining binding at 1 µM in assay [1] was 81%; at BMX, 88%; at EPHA6 it was 93%; at TRKC, 51%; at ZAP70, 100%.
